# Measured values reported in ChEMBL document CHEMBL4325853, “Design, synthesis and antibacterial evaluation of 2,4-disubstituted-6-thiophenyl-pyrimidines” (Eur J Med Chem, 2019).
# Active and inactive are the calls of the source. The calls are words filed in the database; no cut-off is given here.
# Tests used:
# Staphylococcus aureus [1] = assay: Antibacterial activity against Staphylococcus aureus ATCC 29213 after 18 hrs by broth microdilution method; type: functional; settings: ATCC 29213, 18 h
# Bacillus subtilis = assay: Antibacterial activity against Bacillus subtilis 168 after 18 hrs by broth microdilution method; type: functional; settings: subsp. subtilis str. 168, 18 h
# [2] = test system: Staphylococcus epidermidis; assay: Antibacterial activity against Staphylococcus epidermidis ATCC 12228 after 18 hrs by broth microdilution method; type: functional; settings: ATCC 12228, 18 h
# Escherichia coli = assay: Antibacterial activity against Escherichia coli ATCC 25922 after 18 hrs by broth microdilution method; type: functional; settings: ATCC 25922, 18 h
# Enterococcus faecium [3] = assay: Antibacterial activity against Enterococcus faecium ATCC 49624 after 18 hrs by broth microdilution method; type: functional; settings: ATCC 49624, 18 h
# Enterococcus faecalis [4] = assay: Antibacterial activity against Enterococcus faecalis ATCC 29212 after 18 hrs by broth microdilution method; type: functional; settings: ATCC 29212, 18 h
# [5] = molecular target: T1, Cell division protein FtsZ (Staphylococcus aureus) (UniProt P0A031); assay: Inhibition of recombinant Staphylococcus aureus FtsZ polymerization at 8 ug/ml by 90 degree light scattering-based fluorescence spectrometric analysis
# T1 sequence (whole entry): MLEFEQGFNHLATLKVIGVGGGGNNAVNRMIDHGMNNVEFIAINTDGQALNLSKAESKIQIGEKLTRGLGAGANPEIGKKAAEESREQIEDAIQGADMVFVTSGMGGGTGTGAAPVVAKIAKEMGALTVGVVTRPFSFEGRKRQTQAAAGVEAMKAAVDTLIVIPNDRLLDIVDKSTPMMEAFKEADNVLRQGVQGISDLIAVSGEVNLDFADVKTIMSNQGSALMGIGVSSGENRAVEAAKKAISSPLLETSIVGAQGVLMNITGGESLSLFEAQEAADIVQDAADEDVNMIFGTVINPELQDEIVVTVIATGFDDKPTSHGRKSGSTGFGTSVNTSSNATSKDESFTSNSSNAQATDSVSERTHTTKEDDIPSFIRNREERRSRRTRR
# Staphylococcus aureus [6] = assay: Ratio of MIC for Staphylococcus aureus ATCC 29213 after and before 11 to 21 serial passages; type: functional
# [7] = molecular target: T1, Cell division protein FtsZ (Staphylococcus aureus); assay: Inhibition of recombinant Staphylococcus aureus FtsZ GTPase activity assessed as reduction in inorganic phosphate formation after 30 mins by colorimetric method
# Staphylococcus aureus [8] = assay: Antibacterial activity against Staphylococcus aureus ATCC 29213 after 10 passages by broth microdilution method; type: functional, organism-based
# Enterococcus faecalis [9] = assay: Potency index, ratio of berberine MIC to test compound MIC for Enterococcus faecalis ATCC 29212; type: functional
# Staphylococcus aureus [10] = assay: Potency index, ratio of berberine MIC to test compound MIC for Staphylococcus aureus ATCC 29213; type: functional
# Enterococcus faecium [11] = assay: Potency index, ratio of berberine MIC to test compound MIC for Enterococcus faecium ATCC 49624; type: functional
# [12] = test system: Staphylococcus epidermidis; assay: Potency index, ratio of berberine MIC to test compound MIC for Staphylococcus epidermidis ATCC 12228; type: functional
# Staphylococcus aureus [13] = assay: Antibacterial activity against methicillin-resistant Staphylococcus aureus ATCC 33591 after 18 hrs by broth microdilution method; type: functional; settings: ATCC 33591, 18 h
# Staphylococcus aureus [14] = assay: Antibacterial activity against methicillin-resistant Staphylococcus aureus ATCC BAA1720 after 18 hrs by broth microdilution method; type: functional; settings: ATCC BAA1720, 18 h
# Staphylococcus aureus [15] = assay: Antibacterial activity against methicillin-resistant Staphylococcus aureus ATCC BAA41 after 18 hrs by broth microdilution method; type: functional; settings: ATCC BAA41, 18 h
# Staphylococcus aureus [16] = assay: Antibacterial activity against methicillin-resistant Staphylococcus aureus ATCC 33592 after 18 hrs by broth microdilution method; type: functional; settings: ATCC 33592, 18 h
# Enterococcus faecalis [17] = assay: Antibacterial activity against vancomycin-resistant Enterococcus faecalis ATCC 51575 after 18 hrs by broth microdilution method; type: functional; settings: ATCC 51575, 18 h
# Staphylococcus aureus [18] = assay: Antibacterial activity against methicillin-resistant Staphylococcus aureus ATCC 43300 after 18 hrs by broth microdilution method; type: functional; settings: ATCC 43300, 18 h
# Enterococcus faecalis [19] = assay: Antibacterial activity against vancomycin-resistant Enterococcus faecalis ATCC 700221 after 18 hrs by broth microdilution method; type: functional; settings: ATCC 700221, 18 h
SMILES,MIC90 (Staphylococcus aureus [1]),MIC90 (Bacillus subtilis),MIC90 [2],MIC90 (Escherichia coli),MIC90 (Enterococcus faecium [3]),MIC90 (Enterococcus faecalis [4]),other results
Cc1nc(CCNCCN2CCCCC2)cc(-c2cccs2)n1,> 192 µg/mL,> 192 µg/mL,> 192 µg/mL,> 192 µg/mL,> 192 µg/mL,> 192 µg/mL,–
Cc1nc(CCN2CCN(c3ccc(C(F)(F)F)cc3)CC2)cc(-c2cccs2)n1,> 192 µg/mL,> 192 µg/mL,> 192 µg/mL,> 192 µg/mL,> 192 µg/mL,> 192 µg/mL,–
Cc1nc(CCN2CCN(Cc3ccc(F)cc3)CC2)cc(-c2cccs2)n1,192 µg/mL,192 µg/mL,192 µg/mL,> 192 µg/mL,> 192 µg/mL,> 192 µg/mL,–
Cc1nc(CCNCCN2CCOCC2)cc(-c2cccs2)n1,> 192 µg/mL,> 192 µg/mL,> 192 µg/mL,> 192 µg/mL,> 192 µg/mL,> 192 µg/mL,–
Cc1ccc(CN2CCN(CCc3cc(-c4cccs4)nc(C)n3)CC2)cc1,192 µg/mL,192 µg/mL,192 µg/mL,> 192 µg/mL,> 192 µg/mL,> 192 µg/mL,–
Cc1nc(CCN2CCCN(Cc3ccccc3)CC2)cc(-c2cccs2)n1,192 µg/mL,192 µg/mL,192 µg/mL,> 192 µg/mL,> 192 µg/mL,> 192 µg/mL,–
Cc1nc(CCN2CCCN(Cc3ccc(C(C)(C)C)cc3)CC2)cc(-c2cccs2)n1,32 µg/mL,64 µg/mL,32 µg/mL,128 µg/mL,64 µg/mL,64 µg/mL,–
Cc1nc(CCN2CCCN(Cc3ccc(C(C)C)cc3)CC2)cc(-c2cccs2)n1,32 µg/mL,64 µg/mL,32 µg/mL,128 µg/mL,64 µg/mL,64 µg/mL,inhibition [5]: Active; Activity (Staphylococcus aureus [6]): Active; inhibition [7]: Dose-dependent effect; Activity (Staphylococcus aureus [8]): Active
Cc1nc(CCN2CCCN(Cc3ccc(F)c(F)c3)CC2)cc(-c2cccs2)n1,128 µg/mL,128 µg/mL,128 µg/mL,> 192 µg/mL,128 µg/mL,128 µg/mL,–
c1ccc(CN2CCCN(CCc3cc(-c4cccs4)nc(-c4ccncc4)n3)CC2)cc1,16 µg/mL,16 µg/mL,16 µg/mL,> 128 µg/mL,32 µg/mL,32 µg/mL,Ratio (Enterococcus faecalis [9]): 50 - 100; Ratio (Staphylococcus aureus [10]): 50 - 100; Ratio (Enterococcus faecium [11]): 50 - 100; Ratio [12]: 50 - 100
Cc1nc(CCN2CCNCC2)cc(-c2cccs2)n1,> 192 µg/mL,> 192 µg/mL,> 192 µg/mL,> 192 µg/mL,> 192 µg/mL,> 192 µg/mL,–
Cc1nc(CCN2CCN(Cc3ccccc3)CC2)cc(-c2cccs2)n1,> 192 µg/mL,> 192 µg/mL,> 192 µg/mL,> 192 µg/mL,> 192 µg/mL,> 192 µg/mL,–
Cc1nc(CCN2C[C@@H]3C[C@H]2CN3)cc(-c2cccs2)n1,> 192 µg/mL,> 192 µg/mL,> 192 µg/mL,> 192 µg/mL,> 192 µg/mL,> 192 µg/mL,–
Cc1nc(CCN2CCCN(Cc3ccc(F)cc3)CC2)cc(-c2cccs2)n1,128 µg/mL,128 µg/mL,128 µg/mL,> 192 µg/mL,192 µg/mL,192 µg/mL,–
Cc1nc(CCNCCN2CCCC2)cc(-c2cccs2)n1,> 192 µg/mL,> 192 µg/mL,> 192 µg/mL,> 192 µg/mL,> 192 µg/mL,> 192 µg/mL,–
Fc1ccc(CN2CCCN(CCc3cc(-c4cccs4)nc(-c4ccncc4)n3)CC2)cc1F,4 µg/mL,4 µg/mL,4 µg/mL,128 µg/mL,8 µg/mL,8 µg/mL,Ratio (Enterococcus faecalis [9]): 50 - 100; Ratio (Staphylococcus aureus [10]): 50 - 100; Ratio (Enterococcus faecium [11]): 50 - 100; Ratio [12]: 50 - 100
COc1ccc2cc3[n+](cc2c1OC)CCc1cc2c(cc1-3)OCO2 [BERBERINE],128 µg/mL,128 µg/mL,96 µg/mL,> 192 µg/mL,> 192 µg/mL,> 192 µg/mL,MIC90 (Staphylococcus aureus [13]): 192 µg/mL; MIC90 (Staphylococcus aureus [14]): 192 µg/mL; MIC90 (Staphylococcus aureus [15]): 192 µg/mL; MIC90 (Staphylococcus aureus [16]): 192 µg/mL; MIC90 (Enterococcus faecalis [17]): > 192 µg/mL; MIC90 (Staphylococcus aureus [18]): 192 µg/mL; MIC90 (Enterococcus faecalis [19]): > 192 µg/mL
Brc1ccc(CN2CCCN(CCc3cc(-c4cccs4)nc(-c4ccncc4)n3)CC2)cc1,4 µg/mL,4 µg/mL,4 µg/mL,128 µg/mL,8 µg/mL,8 µg/mL,Ratio (Enterococcus faecalis [9]): 50 - 100; Ratio (Staphylococcus aureus [10]): 50 - 100; Ratio (Enterococcus faecium [11]): 50 - 100; Ratio [12]: 50 - 100
Fc1ccc(CN2CCCN(CCc3cc(-c4cccs4)nc(-c4ccncc4)n3)CC2)cc1,8 µg/mL,8 µg/mL,8 µg/mL,> 128 µg/mL,16 µg/mL,16 µg/mL,Ratio (Enterococcus faecalis [9]): 50 - 100; Ratio (Staphylococcus aureus [10]): 50 - 100; Ratio (Enterococcus faecium [11]): 50 - 100; Ratio [12]: 50 - 100
Cc1nc(-c2cccs2)cc([C@H]2CN3CC[C@H]2C[C@@H]3CNC(=O)CCCC(=O)O)n1,192 µg/mL,192 µg/mL,192 µg/mL,384 µg/mL,> 192 µg/mL,> 192 µg/mL,–
Cc1nc(CCN2CCCN(Cc3ccccc3F)CC2)cc(-c2cccs2)n1,192 µg/mL,192 µg/mL,192 µg/mL,> 192 µg/mL,> 192 µg/mL,> 192 µg/mL,–
Cc1nc(CCN(C)CCN(C)Cc2ccccc2)cc(-c2cccs2)n1,> 192 µg/mL,> 192 µg/mL,> 192 µg/mL,> 192 µg/mL,> 192 µg/mL,> 192 µg/mL,–
Fc1cccc(CN2CCCN(CCc3cc(-c4cccs4)nc(-c4ccncc4)n3)CC2)c1,8 µg/mL,8 µg/mL,8 µg/mL,> 128 µg/mL,16 µg/mL,16 µg/mL,Ratio (Enterococcus faecalis [9]): 50 - 100; Ratio (Staphylococcus aureus [10]): 50 - 100; Ratio (Enterococcus faecium [11]): 50 - 100; Ratio [12]: 50 - 100
Cc1nc(CCN2CCN(C(=O)OC(C)(C)C)CC2)cc(-c2cccs2)n1,> 192 µg/mL,> 192 µg/mL,> 192 µg/mL,> 192 µg/mL,> 192 µg/mL,> 192 µg/mL,–
Cc1nc(CCN2C[C@@H]3C[C@H]2CN3C(=O)OC(C)(C)C)cc(-c2cccs2)n1,> 192 µg/mL,> 192 µg/mL,> 192 µg/mL,> 192 µg/mL,> 192 µg/mL,> 192 µg/mL,–
Cc1nc(CCN2CCCN(Cc3cccc(F)c3)CC2)cc(-c2cccs2)n1,128 µg/mL,128 µg/mL,128 µg/mL,> 192 µg/mL,192 µg/mL,192 µg/mL,–
